Data: patent publication US20090291939A1, “Treating Alcohol And Or Substance Abuse By Antagonizing Alpha 2 Adrenergic Receptors With Weak Dopamine Blocking” (priority 2002, published 2009)
Entries after “also recorded” stand apart in the source; their conditions may differ.

What was measured:
Syrian golden hamsters = test: Free choice alcohol drinking in Syrian golden hamsters with daily s.c. drug treatment; conditions: for body weight, change from baseline: 9-day treatment period; for alcohol consumption during post-hoc period: post-hoc: CLOZ animals 2 days lower dose then 22 days vehicle, HAL animals 0.6, 0.8, then 1 mg/kg over 15 days
golden hamster = conditions: cited from earlier work
animals = conditions: cited from earlier work

## CN1CCN(C2=Nc3cc(Cl)ccc3Nc3ccccc32)CC1 [CLOZ, clozapine]
Syrian golden hamsters
  body weight, change from baseline: lost weight
Syrian golden hamsters; first CLOZ injection 2 mg/kg s.c., treatment day #2
  time to onset of decrease in alcohol drinking after first injection: ≤ 27 h
Syrian golden hamsters; treatment period, by day #6, after four days of 4 mg/kg/day CLOZ s.c.
  alcohol consumption, % of baseline: 10 % of baseline

## O=c1c(-c2ccc(O)cc2)coc2cc(O[C@@H]3O[C@H](CO)[C@@H](O)[C@H](O)[C@H]3O)ccc12 [Daidzin]
Golden hamster
  alcohol drinking: decreases alcohol drinking

## O=C(CCCN1CCC(O)(c2ccc(Cl)cc2)CC1)c1ccc(F)cc1 [HAL, haloperidol]
Syrian golden hamsters
  body weight, change from baseline: stayed the same
  alcohol consumption during post-hoc period: did not change; also recorded: no change in alcohol drinking
Syrian golden hamsters; 9-day treatment: CLOZ 2 then 4 mg/kg, HAL 0.2 then 0.4 mg/kg, s.c. daily
  alcohol drinking, change during treatment period: unchanged
Syrian golden hamsters; HAL dose ranging from 0.2 mg/kg to 1 mg/kg, including 11 days at highest dose
  alcohol use over full 24 days of treatment: no evidence of a decrease in alcohol use
Syrian golden hamsters; listed as haloperidol
  alcohol consumption during post-hoc period: no decrease in drinking

## C=CCN1CC[C@]23c4c5ccc(O)c4O[C@H]2C(=O)CC[C@@]3(O)[C@H]1C5 [naloxone]
animals
  alcohol consumption: inhibit alcohol consumption

## O=C1CC[C@@]2(O)[C@H]3Cc4ccc(O)c5c4[C@@]2(CCN3CC2CC2)[C@H]1O5 [naltrexone]
animals
  alcohol consumption: inhibit alcohol consumption

## CN[C@H]1CC[C@@H](c2ccc(Cl)c(Cl)c2)c2ccccc21 [sertraline]
animals
  alcohol consumption: inhibit alcohol consumption
